# According to patent US20080261263A1, “In Vitro Evaluation of Micro-Organisms and Their Antimicrobial Agent Susceptibilities” (SYFT Technologies Limited, priority 2005, published 2008):
# Tests used:
# S. aureus [1] = experiment: Predetermined minimal inhibitory concentration (MIC) for S. aureus; assay type: cell-based; details: Staphylococcus aureus
# S. aureus [2] = experiment: Effect of antibiotic on S. aureus blood culture headspace VC production (SIFT-MS SIMscan); assay type: cell-based, Staphylococcus aureus; details: for Ammonia mean concentration / DMS mean concentration: S. aureus 6 h; for Aminoacetophenone mean concentration / Ethanol mean concentration / Formaldehyde mean concentration: S. aureus 22 h; for Inhibition of aminoacetophenone, ethanol and formaldehyde: S. aureus 22 hours; for Effect on production of ammonia and dimethylsulfide by S. aureus: six hours, flucloxacillin above and below its MIC
# Text: (§1) In one form of the method headspace atmospheres are introduced above conventional Biomerieux BacT/ALERT® aerobic or anaerobic blood cultures at a controlled rate into the flow tube precursor ion stream. The count rates of the resulting product ions are then to be determined by a “downstream” quadrupole and particle multiplier detector. Operating in full scan mode, the detector quadrupole is scanned over a predetermined m/z range to obtain a spectrum of product ions. In selected ion mode (SIMscan) the count rate of selected product ions is determined as the downstream […] is switched to and remains on selected m/zs.
# (§2) Standard Biomerieux (Durham, N.C., USA) BacT/ALERT® SA, FA and SN disposable, plastic culture bottles containing 40 ml of culture medium were used throughout the experiments. 9 ml of healthy, uninfected human blood and 1 ml aliquots of antibiotics prepared in sterile water were added (in the relevant experiments) as required to each bottle prior to the addition of 1 ml of bacterial species suspended in sterile physiological saline.
# (§3) SIFT-MS mass scan studies comparing 24 hour BacT/ALERT®SA blood culture headspace VCs with medium+blood controls identified a test panel of SIM VC analytes suitable for the five bacterial species tested. These bacterial metabolites included acetaldehyde, acetic acid, acetone, 2-aminoacetophenone, ammonia, dimethyldisulfide (DMDS), dimethylsulfide (DMS), formaldehyde, ethanol, hydrogen sulfide, indole, methanethiol, pentanols and propanol. […] absolute concentration measurements in parts per billion (ppb v/v) were integrated, averaged and recorded separately for acetaldehyde, acetic acid, ethanol, acetone, ammonia, hydrogen sulfide, DMS and DMDS during each 30 second SIMscan for each triplicate culture of the five test species after incubation in BacT/ALERT aerobic media. The results are recorded in Table 1 (below).
# (§4) Approximately 10^3 CFU E. coli or S. aureus were inoculated into Biomerieux BacT/ALERT® SA bottles including 9 ml of fresh uninfected blood. Each bacterial species was incubated in triplicate either alone or in the presence of antibiotics above or below their predetermined minimal inhibitory concentrations (MIC).
# (§5) Gentamicin was added to E. coli cultures at either 2 μg/ml or 0.05 μg/ml (MIC 0.25-1 μg/m)l. Flucloxacillin was added to S. aureus cultures at 2 μg/ml or 0.05 μg/ml (MIC 0.12-0.5 μg/ml).
# (§6) The mean, minima and maxima integrated headspace analyte concentration measurements obtained from E. coli and S. aureus cultures are compared in Tables 8 and 9.
# E. coli [3] = experiment: Effect of antibiotic on E. coli blood culture headspace VC production (SIFT-MS SIMscan); assay type: cell-based, Escherichia coli
# Text: as §1, §2, §3, §4, §5, §6
# E. coli [4] = experiment: Predetermined minimal inhibitory concentration (MIC) for E. coli; assay type: cell-based, Escherichia coli
# [5] = flucloxacillin <MIC (0.05 μg/ml)
# [6] = E. coli 6 h, gentamicin <MIC (0.05 μg/ml)
# [7] = E. coli 6 h, gentamicin >MIC (2 μg/ml)
# [8] = E. coli 22 h, gentamicin <MIC (0.05 μg/ml)
# [9] = E. coli 22 h, gentamicin >MIC (2 μg/ml)
compound,measurement,setting,value
Cc1onc(-c2c(F)cccc2Cl)c1C(=O)N[C@@H]1C(=O)N2[C@@H]1SC(C)(C)[C@@H]2C(=O)O [Flucloxacillin],MIC,S. aureus [1],0.12 to 0.5 µg/mL
same,Ammonia mean concentration,S. aureus [2]; [5],40 ppb
same,DMS mean concentration,S. aureus [2]; [5],30 ppb
same,Ammonia mean concentration,S. aureus [2]; flucloxacillin >MIC (2 μg/ml),50 ppb
same,DMS mean concentration,S. aureus [2]; flucloxacillin >MIC (2 μg/ml),10 ppb
same,Aminoacetophenone mean concentration,S. aureus [2]; [5],200 ppb
same,Ethanol mean concentration,S. aureus [2]; [5],7500 ppb
same,Formaldehyde mean concentration,S. aureus [2]; [5],60 ppb
same,Aminoacetophenone mean concentration,S. aureus [2]; flucloxacillin >MIC (2 μg/ml),60 ppb
same,Ethanol mean concentration,S. aureus [2]; flucloxacillin >MIC (2 μg/ml),1900 ppb
same,Formaldehyde mean concentration,S. aureus [2]; flucloxacillin >MIC (2 μg/ml),20 ppb
same,"Inhibition of aminoacetophenone, ethanol and formaldehyde","S. aureus [2]; flucloxacillin above its MIC, p<0.01",notable
same,"Inhibition of aminoacetophenone, ethanol and formaldehyde",S. aureus [2]; lower flucloxacillin concentration (below MIC),not inhibitory
same,Effect on production of ammonia and dimethylsulfide by S. aureus,S. aureus [2],significantly reduced
same,Effect on production of ammonia and dimethylsulfide by S. aureus,S. aureus [2]; listed as flucloxacillin,"inhibited to uninoculated, antibiotic-containing control levels"
Gentamicin,Hydrogen sulfide mean concentration,E. coli [3]; [6],0 ppb
same,Pentanols mean concentration,E. coli [3]; [6],120 ppb
same,Hydrogen sulfide mean concentration,E. coli [3]; [7],0 ppb
same,Pentanols mean concentration,E. coli [3]; [7],90 ppb
same,Acetaldehyde mean concentration,E. coli [3]; [8],3300 ppb
same,Acetic acid mean concentration,E. coli [3]; [8],1950 ppb
same,Aminoacetophenone mean concentration,E. coli [3]; [8],900 ppb
same,DMDS mean concentration,E. coli [3]; [8],380 ppb
same,DMS mean concentration,E. coli [3]; [8],30 ppb
same,Ethanol mean concentration,E. coli [3]; [8],42000 ppb
same,Formaldehyde mean concentration,E. coli [3]; [8],140 ppb
same,Hydrogen sulfide mean concentration,E. coli [3]; [8],1030 ppb
same,Indole mean concentration,E. coli [3]; [8],210 ppb
same,Methanethiol mean concentration,E. coli [3]; [8],1400 ppb
same,Pentanols mean concentration,E. coli [3]; [8],220 ppb
same,Propanol mean concentration,E. coli [3]; [8],5800 ppb
same,Acetaldehyde mean concentration,E. coli [3]; [9],2700 ppb
same,Acetic acid mean concentration,E. coli [3]; [9],600 ppb
same,Aminoacetophenone mean concentration,E. coli [3]; [9],280 ppb
same,DMDS mean concentration,E. coli [3]; [9],190 ppb
same,DMS mean concentration,E. coli [3]; [9],30 ppb
same,Ethanol mean concentration,E. coli [3]; [9],16000 ppb
same,Formaldehyde mean concentration,E. coli [3]; [9],110 ppb
same,Hydrogen sulfide mean concentration,E. coli [3]; [9],6 ppb
same,Indole mean concentration,E. coli [3]; [9],110 ppb
same,Methanethiol mean concentration,E. coli [3]; [9],150 ppb
same,Pentanols mean concentration,E. coli [3]; [9],90 ppb
same,Propanol mean concentration,E. coli [3]; [9],1700 ppb
same,Effect on production of all headspace VCs (except formaldehyde),"E. coli [3]; E. coli 22 hours, gentamicin above its MIC, p<0.005",significantly inhibited
same,Effect on most analytes (except hydrogen sulfide and methanethiol),"E. coli [3]; E. coli 22 hours, gentamicin below its MIC, p<0.01",Significant (p<0.01) reductions
same,Effect on production of hydrogen sulfide by E. coli,"E. coli [3]; six hours, both gentamicin concentrations",eliminated
same,MIC,E. coli [4],0.25 to 1 µg/mL
